From patent US4783443A, “Amino acyl cephalosporin derivatives” (The University of Chicago, priority 1986, dated 1988)
In brackets after ≈: the same amount, converted by molar mass. Structures can show the parent of a compound that is named as a salt. Where two headings read alike, the source gives them in different places.

What was measured:
[1] = test system: Escherichia coli JSR-O Cl-Pep^R; assay: Minimum inhibitory concentration (MIC); type: cell-based; settings: Escherichia coli, read-out: Minimum Inhibitory Concentration
Source text: (§1) The antibacterial effects of compounds of the invention have been assessed by determination of the minimum inhibitory concentration (M.I.C.) value against a variety of Gram-negative and -positive bacteria. The microbial susceptibility data for four compounds, together with those for the antibacterial dipeptide beta-Cl-LAla-beta-Cl-LAla, are given in Table I.
(§2) in uM to facilitate a meaningful comparison of the approximate MICs among
(§3) the tested compounds; an appreciation of the MIC values in ug/mL can be
(§4) obtained by multiplying each value (μM) by 0.55
^(g) This ia an E. coli JSRO strain selected for resistance to the
A comparison of the data for E. coli strains JSR-O and JSR-O Cl-Pep^R is of special interest. E. coli Cl-Pep^R is an E. coli JSR-O mutant which was selected for resistance to the dipeptide (f). […] Note that the MIC values for (d) and (e) against E. coli Cl-Pep^R (100 and 50 μM, respectively) are quite similar.

[2] = test system: Hemophilus influenzae 236; assay: Minimum inhibitory concentration (MIC); type: cell-based; settings: Haemophilus influenzae
Source text: as §1, §2, §3, §4

[3] = test system: Hemophilus influenzae 238; assay: Minimum inhibitory concentration (MIC); type: cell-based; settings: Haemophilus influenzae
Source text: as §1, §2, §3, §4

Morganella morganii = assay: Minimum inhibitory concentration (MIC); type: cell-based; settings: Gram-negative
Source text: as §1, §2, §3, §4

[4] = test system: Staphylococcus aureus PSL-15 Pen^R; assay: Minimum inhibitory concentration (MIC); type: cell-based; settings: possesses a betalactamase
Source text: as §1, §2, §3, §4

Escherichia coli JSR-O = assay: Minimum inhibitory concentration (MIC); type: cell-based; settings: Escherichia coli JSR-O; parental strain; read-out: Minimum Inhibitory Concentration
Source text: as §1, §2, §3, §4

[5] = test system: Staphylococcus aureus PSL-14 Pen^R; assay: Minimum inhibitory concentration (MIC); type: cell-based; settings: possesses a betalactamase
Source text: as §1, §2, §3, §4

Enterobacter areogenes = assay: Minimum inhibitory concentration (MIC); type: cell-based; settings: Gram-negative
Source text: as §1, §2, §3, §4

[6] = test system: Staphylococcus aureus T-4624-8 Pen^R; assay: Minimum inhibitory concentration (MIC); type: cell-based; settings: possesses a betalactamase
Source text: as §1, §2, §3, §4

[7] = test system: Staphylococcus aureus H-2690-8^R; assay: Minimum inhibitory concentration (MIC); type: cell-based; settings: possesses a betalactamase
Source text: as §1, §2, §3, §4

Klebsiella pneumoniae = assay: Minimum inhibitory concentration (MIC); type: cell-based; settings: Gram-negative
Source text: as §1, §2, §3, §4

[8] = test system: Salmonella typhimurium LT 2; assay: Minimum inhibitory concentration (MIC); type: cell-based; settings: Salmonella enterica, Gram-negative
Source text: as §1, §2, §3, §4

Psuedomonas aeruginosa = assay: Minimum inhibitory concentration (MIC); type: cell-based; settings: Gram-negative
Source text: as §1, §2, §3, §4

Escherichia coli DB4548 = assay: Minimum inhibitory concentration (MIC); type: cell-based
Source text: as §1, §2, §3, §4

Serratia marcescens = assay: Minimum inhibitory concentration (MIC); type: cell-based; settings: Gram-negative
Source text: as §1, §2, §3, §4

Streptococcus faecalis = assay: Minimum inhibitory concentration (MIC); type: cell-based; settings: Enterococcus faecalis; Streptococcus faecalis; Gram positive; read-out: Minimum Inhibitory Concentration
Source text: as §1, §2, §3, §4

[9] = test system: Staphylococcus aureus PSL-16 Pen^R; assay: Minimum inhibitory concentration (MIC); type: cell-based; settings: possesses a betalactamase
Source text: as §1, §2, §3, §4

Streptococcus agalactiae = assay: Minimum inhibitory concentration (MIC); type: cell-based; settings: Gram positive
Source text: as §1, §2, §3, §4

[10] = test system: Staphylococcus aureus PSL-13 Pen^R; assay: Minimum inhibitory concentration (MIC); type: cell-based; settings: possesses a betalactamase
Source text: as §1, §2, §3, §4

Salmonella typhimurium = assay: Minimum inhibitory concentration (MIC); type: cell-based; settings: Salmonella enterica, Gram-negative
Source text: as §1, §2, §3, §4

[11] = test system: Hemophilus influenzae 487; assay: Minimum inhibitory concentration (MIC); type: cell-based; settings: Haemophilus influenzae, possesses a betalactamase
Source text: as §1, §2, §3, §4

Shigella flexneri = assay: Minimum inhibitory concentration (MIC); type: cell-based; settings: Gram-negative
Source text: as §1, §2, §3, §4

Escherichia coli CR = assay: Minimum inhibitory concentration (MIC); type: cell-based; settings: Escherichia coli CR; read-out: Minimum Inhibitory Concentration
Source text: as §1, §2, §3, §4

Enterobacter cloacae = assay: Minimum inhibitory concentration (MIC); type: cell-based; settings: Gram-negative, read-out: Minimum Inhibitory Concentration
Source text: as §1, §2, §3, §4

[12] = test system: Escherichia coli JSR-O pBR322; assay: Minimum inhibitory concentration (MIC); type: cell-based; settings: read-out: Minimum Inhibitory Concentration
Source text: as §1, §2, §3, §4
^(i) Contains the plasmid gene encoding the TEM betalactamase.

[13] = test system: Gram-negative and -positive bacteria; assay: Antibacterial activity, general trends of the MIC panel of Table I; type: cell-based; settings: E. cloacae, all of the susceptible E. coli strains, H. influenzae 487, all of the S. aureus strains
Source text: as §1

Corynebacterium JKR-2285 = assay: Minimum inhibitory concentration (MIC); type: cell-based
Source text: as §1, §2, §3, §4
(§5) ^(j) Resistant to cephalothin (MIC >200 uM);

Corynebacterium JKM-4754 = assay: Minimum inhibitory concentration (MIC); type: cell-based
Source text: as §1, §2, §3, §4, §5

Escherichia coli Ceph^R = assay: Minimum inhibitory concentration (MIC); type: cell-based; settings: Escherichia coli, read-out: Minimum Inhibitory Concentration
Source text: as §1, §2, §3, §4, §5

[14] = test system: Staphylococcus epidermidis (P^R M^R); assay: Minimum inhibitory concentration (MIC); type: cell-based; settings: no strain number
Source text: as §1, §2, §3, §4
(§6) ^(k) P and M refer to penicillin and methicillin, respectively.

[15] = test system: Staphylococcus epidermidis 1239(P^R M^R); assay: Minimum inhibitory concentration (MIC); type: cell-based
Source text: as §1, §2, §3, §4, §6

[16] = test system: Staphylococcus epidermidis MO1554(P^S M^S); assay: Minimum inhibitory concentration (MIC); type: cell-based; settings: Staphylococcus epidermidis MO1554 (penicillin- and methicillin-sensitive, P^S M^S)
Source text: as §1, §2, §3, §4, §6

[17] = target: E. coli TEM beta-lactamase (Escherichia coli, UniProt P62593); assay: Kinetics of enzymatic turnover by E. coli TEM beta-lactamase; type: biochemical
Description: Escherichi coli TEM beta-lactamase was purchased from Applied Microbiology and Research, Porton Down, U.K. L-Alanyl-L-alanine was purchase from Sigma; N-BOC-LAla-LAla and N-BOC-beta-Cl-LAla-beta-Cl-LAla were prepared as described previously. Cheung et al supra. All other reagents were of the best grade commercially available.
Kinetic Constants for the Reactions of E. coli TEM beta-Lactamase with Cephalothin and the Cephalosporin Peptide Esters 7 and 17.

[18] = JKR2285, Corynebacterium JKR-2285, resistant to cephalothin, read-out: Minimum Inhibitory Concentration
[19] = JKM4754, Corynebacterium JKM-4754, resistant to cephalothin, read-out: Minimum Inhibitory Concentration

Sequence of E. coli TEM beta-lactamase (P62593 24-286 limits assumed): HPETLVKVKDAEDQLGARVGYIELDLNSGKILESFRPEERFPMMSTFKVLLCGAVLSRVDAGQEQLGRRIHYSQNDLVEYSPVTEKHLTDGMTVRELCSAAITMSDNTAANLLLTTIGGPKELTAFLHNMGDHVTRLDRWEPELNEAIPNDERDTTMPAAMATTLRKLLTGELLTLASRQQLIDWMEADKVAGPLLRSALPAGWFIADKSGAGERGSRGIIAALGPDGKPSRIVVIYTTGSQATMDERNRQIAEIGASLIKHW

Compound	MIC [1]	MIC [2]	MIC [3]	MIC (Morganella morganii)	MIC [4]	MIC (Escherichia coli JSR-O)	MIC [5]	MIC (Enterobacter areogenes)	MIC [6]	MIC [7]	MIC (Klebsiella pneumoniae)	MIC [8]	MIC (Psuedomonas aeruginosa)	MIC (Escherichia coli DB4548)	MIC (Serratia marcescens)	MIC (Streptococcus faecalis)	MIC [9]	MIC (Streptococcus agalactiae)	MIC [10]	MIC (Escherichia coli Ceph^R)	also measured
C[C@H](N)C(=O)OCC1=C(C(=O)O)N2C(=O)[C@@H](NC(=O)Cc3cccs3)[C@H]2SC1 [(b), 7-beta-(2-thienylacetamido)-3-(L-alanyloxymethyl)-3-cephem-4-carboxylic acid]	> 200 µM	50 µM (≈ 21.3 µg/mL)	≤ 0.78 µM	100 µM (≈ 42.5 µg/mL)	100 µM (≈ 42.5 µg/mL)	100 µM (≈ 42.5 µg/mL)	> 200 µM	> 200 µM	100 µM (≈ 42.5 µg/mL)	100 µM (≈ 42.5 µg/mL)	> 200 µM	50 µM (≈ 21.3 µg/mL)	> 200 µM	50 µM (≈ 21.3 µg/mL)	> 200 µM	> 100 µM	> 200 µM	≤ 0.78 µM	200 µM (≈ 85.1 µg/mL)	> 200 µM	MIC (Salmonella typhimurium): > 200 µM; MIC [11]: 50 µM (≈ 21.3 µg/mL); MIC (Shigella flexneri): 100 µM (≈ 42.5 µg/mL); MIC (Escherichia coli CR): 100 µM (≈ 42.5 µg/mL); MIC (Enterobacter cloacae): > 200 µM; MIC [12]: 50 µM (≈ 21.3 µg/mL); sensitivity observed [13]: no activity was seen; MIC (Corynebacterium JKR-2285; [18]): > 200 µM; MIC (Corynebacterium JKM-4754; [19]): > 200 µM; MIC [14]: 1.56 µM (≈ 0.664 µg/mL); MIC [15]: ≤ 0.78 µM; MIC [16]: ≤ 0.78 µM
N[C@@H](CCl)C(=O)OCC1=C(C(=O)O)N2C(=O)[C@@H](NC(=O)Cc3cccs3)[C@H]2SC1 [(c), 7-beta-(2-thienylacetamido)-3(beta-chloro-L-alanyloxymethyl)-3-cephem-4-carboxylic acid]	> 200 µM	25 µM (≈ 11.5 µg/mL)	≤ 0.78 µM	100 µM (≈ 46 µg/mL)	12.5 µM (≈ 5.75 µg/mL)	100 µM (≈ 46 µg/mL)	25 µM (≈ 11.5 µg/mL)	> 200 µM	6.25 µM (≈ 2.87 µg/mL)	6.25 µM (≈ 2.87 µg/mL)	> 200 µM	25 µM (≈ 11.5 µg/mL)	> 200 µM	50 µM (≈ 23 µg/mL)	> 200 µM	200 µM (≈ 92 µg/mL)	255 µM (≈ 117 µg/mL)	≤ 0.78 µM	25 µM (≈ 11.5 µg/mL)	> 200 µM	MIC (Salmonella typhimurium): 100 µM (≈ 46 µg/mL); MIC [11]: 25 µM (≈ 11.5 µg/mL); MIC (Shigella flexneri): 100 µM (≈ 46 µg/mL); MIC (Escherichia coli CR): 50 µM (≈ 23 µg/mL); MIC (Enterobacter cloacae): 100 µM (≈ 46 µg/mL); sensitivity observed [13]: sensitivity was observed; MIC (Corynebacterium JKR-2285; [18]): > 200 µM; MIC (Corynebacterium JKM-4754; [19]): > 200 µM; MIC [14]: ≤ 0.78 µM; MIC [15]: ≤ 0.78 µM; MIC [16]: ≤ 0.78 µM
C[C@H](N)C(=O)N[C@@H](C)C(=O)OCC1=C(C(=O)O)N2C(=O)[C@@H](NC(=O)Cc3cccs3)[C@H]2SC1 [(d), Sodium 7-beta-(2-thienylacetamido)-3-(L-alanyl-L-alanyloxymethyl)-3-cephem-4-carboxylate, toluenesulfonic acid salt]	100 µM	50 µM	≤ 0.78 µM	100 µM	> 200 µM	200 µM	> 200 µM	> 200 µM	25 µM	25 µM	> 200 µM	25 µM	> 200 µM	50 µM	> 200 µM	50 µM	200 µM	≤ 0.78 µM	> 200 µM	> 200 µM	Vmax compared with cephalothin [17]: substantially greater than that obtained for cephalothin; substrate for the lactamase [17]: found to be substrates for the E. coli TEM beta-lactamase; binding to the lactamase (KM approximating KS) ([17]; effect of the C10-dipeptidyl substituent): do not compromise the binding of the cephalosporin nucleus to the lactamase; MIC (Salmonella typhimurium): 100 µM; MIC [11]: 12.5 µM; MIC (Shigella flexneri): 100 µM; MIC (Escherichia coli CR): 200 µM; MIC (Enterobacter cloacae): 200 µM; MIC [12]: > 200 µM; sensitivity observed [13]: no activity was seen; MIC (Corynebacterium JKR-2285; [18]): > 200 µM; MIC (Corynebacterium JKM-4754; [19]): > 200 µM; MIC [14]: ≤ 0.78 µM; MIC [15]: ≤ 0.78 µM; MIC [16]: ≤ 0.78 µM
CC(=O)OCC1=C(C(=O)O)N2C(=O)[C@@H](NC(=O)Cc3cccs3)[C@H]2SC1 [cephalothin, reference compound]	–	–	–	–	–	–	–	–	–	–	–	–	–	–	–	–	–	–	–	> 200 µM	MIC (Corynebacterium JKR-2285; Corynebacterium, JKR2285, read-out: Minimum Inhibitory Concentration): > 200 µM; MIC (Corynebacterium JKM-4754; Corynebacterium, JKM4754, read-out: Minimum Inhibitory Concentration): > 200 µM
